Source: ChEMBL document CHEMBL1909294, “Translating clinical findings into knowledge in drug safety evaluation--drug induced liver injury prediction system (DILIps)” (PLoS Comput Biol, 2011)

Experiments:
Hepatotoxicity [1] = test system: Hepatotoxicity;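 as to HepSE cholecystitis: Cholecystitis-related hepatic side effect score drawn from the DILIps (drug-induced liver injury prediction) training data set; call rule not given here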;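 as to HepSE elevated liver function tests: hepatic side effect score for raised liver function tests, as recorded in the DILIps training set used for predicting drug-induced liver injury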;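 as to HepSE hepatic necrosis: score of hepatic side effects for hepatic necrosis, drawn from the training data of DILIps, a prediction system for drug-induced liver injury; call rule not given here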;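 as to HepSE hepatomegaly: hepatic side effect score for hepatomegaly, taken from the training set of the DILIps drug-induced liver injury prediction system; call rule not given here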;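 as to HepSE liver fatty: hepatic side effect score for fatty liver, taken from the DILIps training set for predicting drug-induced liver injury; call rule not given here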;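 as to HepSE liver function tests abnormal: hepatic side effect score taken from the DILIps (drug-induced liver injury prediction system) training data, here covering abnormal liver function test findings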
Hepatotoxicity [2] = test system: Hepatotoxicity; remark: listed apart in the source;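 as to HepSE cholecystitis: Cholecystitis-related hepatic side effect score drawn from the DILIps (drug-induced liver injury prediction) training data set; call rule not given here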;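 as to HepSE elevated liver function tests: hepatic side effect score for raised liver function tests, as recorded in the DILIps training set used for predicting drug-induced liver injury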;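 as to HepSE hepatic necrosis: score of hepatic side effects for hepatic necrosis, drawn from the training data of DILIps, a prediction system for drug-induced liver injury; call rule not given here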;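 as to HepSE hepatomegaly: hepatic side effect score for hepatomegaly, taken from the training set of the DILIps drug-induced liver injury prediction system; call rule not given here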;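 as to HepSE liver fatty: hepatic side effect score for fatty liver, taken from the DILIps training set for predicting drug-induced liver injury; call rule not given here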;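 as to HepSE liver function tests abnormal: hepatic side effect score taken from the DILIps (drug-induced liver injury prediction system) training data, here covering abnormal liver function test findings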
Hepatotoxicity [3] = test system: Hepatotoxicity; remark: listed apart in the source;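 as to HepSE cholecystitis: Cholecystitis-related hepatic side effect score drawn from the DILIps (drug-induced liver injury prediction) training data set; call rule not given here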;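 as to HepSE hepatic necrosis: score of hepatic side effects for hepatic necrosis, drawn from the training data of DILIps, a prediction system for drug-induced liver injury; call rule not given here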;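 as to HepSE hepatomegaly: hepatic side effect score for hepatomegaly, taken from the training set of the DILIps drug-induced liver injury prediction system; call rule not given here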;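 as to HepSE liver fatty: hepatic side effect score for fatty liver, taken from the DILIps training set for predicting drug-induced liver injury; call rule not given here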;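 as to HepSE liver function tests abnormal: hepatic side effect score taken from the DILIps (drug-induced liver injury prediction system) training data, here covering abnormal liver function test findings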
Hepatotoxicity [4] = test system: Hepatotoxicity; remark: listed apart in the source;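 as to HepSE cholecystitis: Cholecystitis-related hepatic side effect score drawn from the DILIps (drug-induced liver injury prediction) training data set; call rule not given here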;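 as to HepSE hepatic necrosis: score of hepatic side effects for hepatic necrosis, drawn from the training data of DILIps, a prediction system for drug-induced liver injury; call rule not given here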;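 as to HepSE hepatomegaly: hepatic side effect score for hepatomegaly, taken from the training set of the DILIps drug-induced liver injury prediction system; call rule not given here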;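 as to HepSE liver fatty: hepatic side effect score for fatty liver, taken from the DILIps training set for predicting drug-induced liver injury; call rule not given here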;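 as to HepSE liver function tests abnormal: hepatic side effect score taken from the DILIps (drug-induced liver injury prediction system) training data, here covering abnormal liver function test findings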
Hepatotoxicity [5] = test system: Hepatotoxicity; remark: listed apart in the source
Hepatotoxicity [6] = test system: Hepatotoxicity; remark: listed apart in the source
Hepatotoxicity [7] = test system: Hepatotoxicity; remark: listed apart in the source
Hepatotoxicity [8] = test system: Hepatotoxicity; remark: listed apart in the source
Hepatotoxicity [9] = test system: Hepatotoxicity; remark: listed apart in the source
Hepatotoxicity [10] = test system: Hepatotoxicity; remark: listed apart in the source
Hepatotoxicity [11] = test system: Hepatotoxicity; remark: listed apart in the source
Hepatotoxicity [12] = test system: Hepatotoxicity; remark: listed apart in the source
Hepatotoxicity [13] = test system: Hepatotoxicity; remark: listed apart in the source
Hepatotoxicity [14] = test system: Hepatotoxicity; remark: listed apart in the source

PORFIMER SODIUM
0: HepSE_cholecystitis (Hepatotoxicity [1]) | HepSE_liver fatty (Hepatotoxicity [2]) | HepSE_hepatic necrosis (Hepatotoxicity [3]) | HepSE_hepatitis (Hepatotoxicity [4]) | HepSE_hepatomegaly (Hepatotoxicity [5]) | HepSE_liver function tests abnormal (Hepatotoxicity [6]) | HepSE_elevated liver function tests (Hepatotoxicity [7]) | HepSE_cirrhosis (Hepatotoxicity [8]) | HepSE_liver disease (Hepatotoxicity [10]) | HepSE_bilirubinemia (Hepatotoxicity [11]) | HepSE_cholelithiasis (Hepatotoxicity [12]) | HepSE_hepatic failure (Hepatotoxicity [14])
1: HepSE_Combined Scores (Hepatotoxicity [9]) | HepSE_jaundice (Hepatotoxicity [13])

CCCc1cc(=O)[nH]c(=S)[nH]1 [PROPYLTHIOURACIL]
1: HepSE_hepatitis (Hepatotoxicity [4]; Liver) | HepSE_jaundice (Hepatotoxicity [13]; Liver)
0: HepSE_cholecystitis (Hepatotoxicity [1]; Liver) | HepSE_liver fatty (Hepatotoxicity [2]; Liver) | HepSE_hepatic necrosis (Hepatotoxicity [3]; Liver) | HepSE_hepatomegaly (Hepatotoxicity [5]; Liver) | HepSE_liver function tests abnormal (Hepatotoxicity [6]; Liver) | HepSE_elevated liver function tests (Hepatotoxicity [7]; Liver) | HepSE_cirrhosis (Hepatotoxicity [8]; Liver) | HepSE_liver disease (Hepatotoxicity [10]; Liver) | HepSE_bilirubinemia (Hepatotoxicity [11]; Liver) | HepSE_cholelithiasis (Hepatotoxicity [12]; Liver) | HepSE_hepatic failure (Hepatotoxicity [14]; Liver)
2: HepSE_Combined Scores (Hepatotoxicity [9]; Liver)

CC(=O)N(CC(O)CO)c1c(I)c(C(=O)NCC(O)CO)c(I)c(C(=O)NCC(O)CO)c1I (stereo unspecified) [IOHEXOL]
0: HepSE_cholecystitis (Hepatotoxicity [1]) | HepSE_liver fatty (Hepatotoxicity [2]) | HepSE_hepatic necrosis (Hepatotoxicity [3]) | HepSE_hepatitis (Hepatotoxicity [4]) | HepSE_hepatomegaly (Hepatotoxicity [5]) | HepSE_liver function tests abnormal (Hepatotoxicity [6]) | HepSE_elevated liver function tests (Hepatotoxicity [7]) | HepSE_cirrhosis (Hepatotoxicity [8]) | HepSE_Combined Scores (Hepatotoxicity [9]) | HepSE_liver disease (Hepatotoxicity [10]) | HepSE_bilirubinemia (Hepatotoxicity [11]) | HepSE_cholelithiasis (Hepatotoxicity [12]) | HepSE_jaundice (Hepatotoxicity [13]) | HepSE_hepatic failure (Hepatotoxicity [14])

CC1=C(/C=C/C(C)=C/C=C/C(C)=C/C(=O)O)C(C)(C)CCC1 [TRETINOIN]
0: HepSE_cholecystitis (Hepatotoxicity [1]) | HepSE_liver fatty (Hepatotoxicity [2]) | HepSE_hepatic necrosis (Hepatotoxicity [3]) | HepSE_hepatomegaly (Hepatotoxicity [5]) | HepSE_liver function tests abnormal (Hepatotoxicity [6]) | HepSE_elevated liver function tests (Hepatotoxicity [7]) | HepSE_cirrhosis (Hepatotoxicity [8]) | HepSE_bilirubinemia (Hepatotoxicity [11]) | HepSE_cholelithiasis (Hepatotoxicity [12]) | HepSE_jaundice (Hepatotoxicity [13]) | HepSE_hepatic failure (Hepatotoxicity [14])
1: HepSE_hepatitis (Hepatotoxicity [4]) | HepSE_liver disease (Hepatotoxicity [10])
2: HepSE_Combined Scores (Hepatotoxicity [9])

COc1cc(N)c(Cl)cc1C(=O)NC1CCN(CCCOc2ccc(F)cc2)CC1OC (stereo unspecified) [CISAPRIDE]
1: HepSE_hepatitis (Hepatotoxicity [4]) | HepSE_Combined Scores (Hepatotoxicity [9])
0: HepSE_cholecystitis (Hepatotoxicity [1]) | HepSE_liver fatty (Hepatotoxicity [2]) | HepSE_hepatic necrosis (Hepatotoxicity [3]) | HepSE_hepatomegaly (Hepatotoxicity [5]) | HepSE_liver function tests abnormal (Hepatotoxicity [6]) | HepSE_elevated liver function tests (Hepatotoxicity [7]) | HepSE_cirrhosis (Hepatotoxicity [8]) | HepSE_liver disease (Hepatotoxicity [10]) | HepSE_bilirubinemia (Hepatotoxicity [11]) | HepSE_cholelithiasis (Hepatotoxicity [12]) | HepSE_jaundice (Hepatotoxicity [13]) | HepSE_hepatic failure (Hepatotoxicity [14])

NCCCC(N)(C(=O)O)C(F)F (stereo unspecified) [EFLORNITHINE]
0: HepSE_cholecystitis (Hepatotoxicity [1]) | HepSE_liver fatty (Hepatotoxicity [2]) | HepSE_hepatic necrosis (Hepatotoxicity [3]) | HepSE_hepatitis (Hepatotoxicity [4]) | HepSE_hepatomegaly (Hepatotoxicity [5]) | HepSE_liver function tests abnormal (Hepatotoxicity [6]) | HepSE_elevated liver function tests (Hepatotoxicity [7]) | HepSE_cirrhosis (Hepatotoxicity [8]) | HepSE_Combined Scores (Hepatotoxicity [9]) | HepSE_liver disease (Hepatotoxicity [10]) | HepSE_bilirubinemia (Hepatotoxicity [11]) | HepSE_cholelithiasis (Hepatotoxicity [12]) | HepSE_jaundice (Hepatotoxicity [13]) | HepSE_hepatic failure (Hepatotoxicity [14])

OC[C@H]1O[C@@H](O[C@@H]2[C@@H](CO)O[C@](O)(CO)[C@H]2O)[C@H](O)[C@@H](O)[C@H]1O [LACTULOSE]
0: HepSE_cholecystitis (Hepatotoxicity [1]) | HepSE_liver fatty (Hepatotoxicity [2]) | HepSE_hepatic necrosis (Hepatotoxicity [3]) | HepSE_hepatitis (Hepatotoxicity [4]) | HepSE_hepatomegaly (Hepatotoxicity [5]) | HepSE_liver function tests abnormal (Hepatotoxicity [6]) | HepSE_elevated liver function tests (Hepatotoxicity [7]) | HepSE_cirrhosis (Hepatotoxicity [8]) | HepSE_Combined Scores (Hepatotoxicity [9]) | HepSE_liver disease (Hepatotoxicity [10]) | HepSE_bilirubinemia (Hepatotoxicity [11]) | HepSE_cholelithiasis (Hepatotoxicity [12]) | HepSE_jaundice (Hepatotoxicity [13]) | HepSE_hepatic failure (Hepatotoxicity [14])

CCCSc1ccc2nc(NC(=O)OC)[nH]c2c1 [ALBENDAZOLE]
1: HepSE_hepatitis (Hepatotoxicity [4]) | HepSE_liver disease (Hepatotoxicity [10]) | HepSE_hepatic failure (Hepatotoxicity [14])
3: HepSE_Combined Scores (Hepatotoxicity [9])
0: HepSE_cholecystitis (Hepatotoxicity [1]) | HepSE_liver fatty (Hepatotoxicity [2]) | HepSE_hepatic necrosis (Hepatotoxicity [3]) | HepSE_hepatomegaly (Hepatotoxicity [5]) | HepSE_liver function tests abnormal (Hepatotoxicity [6]) | HepSE_elevated liver function tests (Hepatotoxicity [7]) | HepSE_cirrhosis (Hepatotoxicity [8]) | HepSE_bilirubinemia (Hepatotoxicity [11]) | HepSE_cholelithiasis (Hepatotoxicity [12]) | HepSE_jaundice (Hepatotoxicity [13])

CC(=O)OCC(CCn1cnc2cnc(N)nc21)COC(C)=O [FAMCICLOVIR]
1: HepSE_liver function tests abnormal (Hepatotoxicity [6]) | HepSE_bilirubinemia (Hepatotoxicity [11]) | HepSE_jaundice (Hepatotoxicity [13])
0: HepSE_cholecystitis (Hepatotoxicity [1]) | HepSE_liver fatty (Hepatotoxicity [2]) | HepSE_hepatic necrosis (Hepatotoxicity [3]) | HepSE_hepatitis (Hepatotoxicity [4]) | HepSE_hepatomegaly (Hepatotoxicity [5]) | HepSE_elevated liver function tests (Hepatotoxicity [7]) | HepSE_cirrhosis (Hepatotoxicity [8]) | HepSE_liver disease (Hepatotoxicity [10]) | HepSE_cholelithiasis (Hepatotoxicity [12]) | HepSE_hepatic failure (Hepatotoxicity [14])
3: HepSE_Combined Scores (Hepatotoxicity [9])
